Data reported in patent US20250147039A1, “Compounds for complexation of rare earth elements and/or s-, p-, d- block metals, their coordination compounds, peptide conjugates, method of their preparation and use thereof” (USTAV ORGANICKE CHEMIE A BIOCHEMIE AV CR V.V.I., priority 2021, published 2025).
One block for each molecule: values may come before it.

Assays:
[1] = Formation of 1,5-cz-[Ln(Lig)] from Lig and Ln^III ions (metal dependent click-zip), MOPS/NaOH buffer pH 7.0, analytical HPLC (Charts 1, 2); conditions: MOPS/NaOH buffer pH 7.0
[2] = Formation of 1,5-cz-[M(Lig)] from Lig and M^III ions (metal dependent click-zip) (Charts 4, 5); type: physicochemical; conditions: MOPS/NaOH buffer pH 7.0; for conversion to 1,5-cz-[M(Lig)], Sc^III / conversion to 1,5-cz-[M(Lig)], Y^III: TD728, TD827 in 50% i-PrOH; for conversion to 1,5-cz-[M(Lig)], Y^III: TD714 sum of two diastereoisomers

conversion to 1,5-cz-[Ln(Lig)], Ce^III ([1]; after 1 week at 80° C.): 7%
conversion to 1,5-cz-[Ln(Lig)], Ce^III ([1]; after 1 hour at 80° C.): 0%
conversion to 1,5-cz-[Ln(Lig)], Dy^III ([1]; after 1 week at 80° C.): 80%
conversion to 1,5-cz-[Ln(Lig)], Dy^III ([1]; after 1 hour at 80° C.): 2%
conversion to 1,5-cz-[Ln(Lig)], Er^III ([1]; after 1 week at 80° C.): 91%
conversion to 1,5-cz-[Ln(Lig)], Er^III ([1]; after 1 hour at 80° C.): 4%
conversion to 1,5-cz-[Ln(Lig)], Eu^III ([1]; after 1 week at 80° C.): 53%
conversion to 1,5-cz-[Ln(Lig)], Eu^III ([1]; after 1 hour at 80° C.): 1%
conversion to 1,5-cz-[Ln(Lig)], Gd^III ([1]; after 1 week at 80° C.): 56%
conversion to 1,5-cz-[Ln(Lig)], Gd^III ([1]; after 1 hour at 80° C.): 1%
conversion to 1,5-cz-[Ln(Lig)], Ho^III ([1]; after 1 week at 80° C.): 86%
conversion to 1,5-cz-[Ln(Lig)], Ho^III ([1]; after 1 hour at 80° C.): 3%
conversion to 1,5-cz-[Ln(Lig)], La^III ([1]; after 1 week at 80° C.): 18%
conversion to 1,5-cz-[Ln(Lig)], La^III ([1]; after 1 hour at 80° C.): 0%
conversion to 1,5-cz-[Ln(Lig)], Lu^III ([1]; after 1 week at 80° C.): 97%
conversion to 1,5-cz-[Ln(Lig)], Lu^III ([1]; after 1 hour at 80° C.): 13%
conversion to 1,5-cz-[Ln(Lig)], Nd^III ([1]; after 1 week at 80° C.): 25%
conversion to 1,5-cz-[Ln(Lig)], Nd^III ([1]; after 1 hour at 80° C.): 0%
conversion to 1,5-cz-[Ln(Lig)], Pr^III ([1]; after 1 week at 80° C.): 15%
conversion to 1,5-cz-[Ln(Lig)], Pr^III ([1]; after 1 hour at 80° C.): 0%
conversion to 1,5-cz-[Ln(Lig)], Sm^III ([1]; after 1 week at 80° C.): 46%
conversion to 1,5-cz-[Ln(Lig)], Sm^III ([1]; after 1 hour at 80° C.): 0%
conversion to 1,5-cz-[Ln(Lig)], Tb^III ([1]; after 1 week at 80° C.): 72%
conversion to 1,5-cz-[Ln(Lig)], Tb^III ([1]; after 1 hour at 80° C.): 1%
conversion to 1,5-cz-[Ln(Lig)], Tm^III ([1]; after 1 week at 80° C.): 93%
conversion to 1,5-cz-[Ln(Lig)], Tm^III ([1]; after 1 hour at 80° C.): 7%
conversion to 1,5-cz-[Ln(Lig)], Yb^III ([1]; after 1 week at 80° C.): 95%
conversion to 1,5-cz-[Ln(Lig)], Yb^III ([1]; after 1 hour at 80° C.): 10%
conversion to 1,5-cz-[M(Lig)], Sc^III ([2]; 1 week at 80° C.): 29%
conversion to 1,5-cz-[M(Lig)], Y^III ([2]; 1 week at 80° C.): 83%
conversion to 1,5-cz-[M(Lig)], Sc^III ([2]; 1 hour at 80° C.): 0%
conversion to 1,5-cz-[M(Lig)], Y^III ([2]; 1 hour at 80° C.): 2%
SMILES: [N-]=[N+]=NCc1cccc(CN2CCN(CC(=O)O)CCN(Cc3cccc(C#CC4CCNCC4)n3)CCN(CC(=O)O)CC2)n1 [TD1127]

conversion to 1,5-cz-[Ln(Lig)] with hydrolysed group in the side chain, Ce^III ([1]; after 1 week at 80° C.): 27%
conversion to 1,5-cz-[Ln(Lig)], Ce^III ([1]; after 1 week at 80° C.): 0%
conversion to 1,5-cz-[Ln(Lig)] with hydrolysed group in the side chain, Ce^III ([1]; after 1 hour at 80° C.): 0%
conversion to 1,5-cz-[Ln(Lig)], Ce^III ([1]; after 1 hour at 80° C.): 0%
conversion to 1,5-cz-[Ln(Lig)] with hydrolysed group in the side chain, Dy^III ([1]; after 1 week at 80° C.): 93%
conversion to 1,5-cz-[Ln(Lig)], Dy^III ([1]; after 1 week at 80° C.): 0%
conversion to 1,5-cz-[Ln(Lig)] with hydrolysed group in the side chain, Dy^III ([1]; after 1 hour at 80° C.): 2%
conversion to 1,5-cz-[Ln(Lig)], Dy^III ([1]; after 1 hour at 80° C.): 14%
conversion to 1,5-cz-[Ln(Lig)] with hydrolysed group in the side chain, Er^III ([1]; after 1 week at 80° C.): 94%
conversion to 1,5-cz-[Ln(Lig)], Er^III ([1]; after 1 week at 80° C.): 0%
conversion to 1,5-cz-[Ln(Lig)] with hydrolysed group in the side chain, Er^III ([1]; after 1 hour at 80° C.): 4%
conversion to 1,5-cz-[Ln(Lig)], Er^III ([1]; after 1 hour at 80° C.): 33%
conversion to 1,5-cz-[Ln(Lig)] with hydrolysed group in the side chain, Eu^III ([1]; after 1 week at 80° C.): 90%
conversion to 1,5-cz-[Ln(Lig)], Eu^III ([1]; after 1 week at 80° C.): 0%
conversion to 1,5-cz-[Ln(Lig)] with hydrolysed group in the side chain, Eu^III ([1]; after 1 hour at 80° C.): 0%
conversion to 1,5-cz-[Ln(Lig)], Eu^III ([1]; after 1 hour at 80° C.): 4%
conversion to 1,5-cz-[Ln(Lig)] with hydrolysed group in the side chain, Gd^III ([1]; after 1 week at 80° C.): 90%
conversion to 1,5-cz-[Ln(Lig)], Gd^III ([1]; after 1 week at 80° C.): 0%
conversion to 1,5-cz-[Ln(Lig)] with hydrolysed group in the side chain, Gd^III ([1]; after 1 hour at 80° C.): 1%
conversion to 1,5-cz-[Ln(Lig)], Gd^III ([1]; after 1 hour at 80° C.): 5%
conversion to 1,5-cz-[Ln(Lig)] with hydrolysed group in the side chain, Ho^III ([1]; after 1 week at 80° C.): 94%
conversion to 1,5-cz-[Ln(Lig)], Ho^III ([1]; after 1 week at 80° C.): 0%
conversion to 1,5-cz-[Ln(Lig)] with hydrolysed group in the side chain, Ho^III ([1]; after 1 hour at 80° C.): 3%
conversion to 1,5-cz-[Ln(Lig)], Ho^III ([1]; after 1 hour at 80° C.): 21%
conversion to 1,5-cz-[Ln(Lig)] with hydrolysed group in the side chain, La^III ([1]; after 1 week at 80° C.): 36%
conversion to 1,5-cz-[Ln(Lig)], La^III ([1]; after 1 week at 80° C.): 0%
conversion to 1,5-cz-[Ln(Lig)] with hydrolysed group in the side chain, La^III ([1]; after 1 hour at 80° C.): 0%
conversion to 1,5-cz-[Ln(Lig)], La^III ([1]; after 1 hour at 80° C.): 0%
conversion to 1,5-cz-[Ln(Lig)] with hydrolysed group in the side chain, Lu^III ([1]; after 1 week at 80° C.): 96%
conversion to 1,5-cz-[Ln(Lig)], Lu^III ([1]; after 1 week at 80° C.): 0%
conversion to 1,5-cz-[Ln(Lig)] with hydrolysed group in the side chain, Lu^III ([1]; after 1 hour at 80° C.): 6%
conversion to 1,5-cz-[Ln(Lig)], Lu^III ([1]; after 1 hour at 80° C.): 57%
conversion to 1,5-cz-[Ln(Lig)] with hydrolysed group in the side chain, Nd^III ([1]; after 1 week at 80° C.): 71%
conversion to 1,5-cz-[Ln(Lig)], Nd^III ([1]; after 1 week at 80° C.): 0%
conversion to 1,5-cz-[Ln(Lig)] with hydrolysed group in the side chain, Nd^III ([1]; after 1 hour at 80° C.): 0%
conversion to 1,5-cz-[Ln(Lig)], Nd^III ([1]; after 1 hour at 80° C.): 1%
conversion to 1,5-cz-[Ln(Lig)] with hydrolysed group in the side chain, Pr^III ([1]; after 1 week at 80° C.): 61%
conversion to 1,5-cz-[Ln(Lig)], Pr^III ([1]; after 1 week at 80° C.): 0%
conversion to 1,5-cz-[Ln(Lig)] with hydrolysed group in the side chain, Pr^III ([1]; after 1 hour at 80° C.): 0%
conversion to 1,5-cz-[Ln(Lig)], Pr^III ([1]; after 1 hour at 80° C.): 0%
conversion to 1,5-cz-[Ln(Lig)] with hydrolysed group in the side chain, Sm^III ([1]; after 1 week at 80° C.): 86%
conversion to 1,5-cz-[Ln(Lig)], Sm^III ([1]; after 1 week at 80° C.): 0%
conversion to 1,5-cz-[Ln(Lig)] with hydrolysed group in the side chain, Sm^III ([1]; after 1 hour at 80° C.): 0%
conversion to 1,5-cz-[Ln(Lig)], Sm^III ([1]; after 1 hour at 80° C.): 3%
conversion to 1,5-cz-[Ln(Lig)] with hydrolysed group in the side chain, Tb^III ([1]; after 1 week at 80° C.): 91%
conversion to 1,5-cz-[Ln(Lig)], Tb^III ([1]; after 1 week at 80° C.): 0%
conversion to 1,5-cz-[Ln(Lig)] with hydrolysed group in the side chain, Tb^III ([1]; after 1 hour at 80° C.): 1%
conversion to 1,5-cz-[Ln(Lig)], Tb^III ([1]; after 1 hour at 80° C.): 9%
conversion to 1,5-cz-[Ln(Lig)] with hydrolysed group in the side chain, Tm^III ([1]; after 1 week at 80° C.): 95%
conversion to 1,5-cz-[Ln(Lig)], Tm^III ([1]; after 1 week at 80° C.): 0%
conversion to 1,5-cz-[Ln(Lig)] with hydrolysed group in the side chain, Tm^III ([1]; after 1 hour at 80° C.): 5%
conversion to 1,5-cz-[Ln(Lig)], Tm^III ([1]; after 1 hour at 80° C.): 45%
conversion to 1,5-cz-[Ln(Lig)] with hydrolysed group in the side chain, Yb^III ([1]; after 1 week at 80° C.): 95%
conversion to 1,5-cz-[Ln(Lig)], Yb^III ([1]; after 1 week at 80° C.): 0%
conversion to 1,5-cz-[Ln(Lig)] with hydrolysed group in the side chain, Yb^III ([1]; after 1 hour at 80° C.): 5%
conversion to 1,5-cz-[Ln(Lig)], Yb^III ([1]; after 1 hour at 80° C.): 54%
conversion to 1,5-cz-[Ln(Lig)] with hydrolysed group in the side chain, Sc^III ([2]; 1 week at 80° C.): 11%
conversion to 1,5-cz-[Ln(Lig)] with hydrolysed group in the side chain, Y^III ([2]; 1 week at 80° C.): 94%
conversion to 1,5-cz-[M(Lig)], Sc^III ([2]; 1 week at 80° C.): 0%
conversion to 1,5-cz-[M(Lig)], Y^III ([2]; 1 week at 80° C.): 0%
conversion to 1,5-cz-[Ln(Lig)] with hydrolysed group in the side chain, Sc^III ([2]; 1 hour at 80° C.): 0%
conversion to 1,5-cz-[Ln(Lig)] with hydrolysed group in the side chain, Y^III ([2]; 1 hour at 80° C.): 3%
conversion to 1,5-cz-[M(Lig)], Sc^III ([2]; 1 hour at 80° C.): 0%
conversion to 1,5-cz-[M(Lig)], Y^III ([2]; 1 hour at 80° C.): 18%
SMILES: C#Cc1cccc(CN2CCN(CC(=O)O)CCN(Cc3cc(C(=O)OC(C)C)cc(CN=[N+]=[N-])n3)CCN(CC(=O)O)CC2)n1 [TD1148]
